ChEMBL document CHEMBL3885881, “DrugMatrix”

Organism: Rattus norvegicus
Experiment: DrugMatrix - Regimen: Daily Repeat
Format: toxicity, organism-based, Sprague-Dawley
Parameters: regimen Daily Repeat, gender Male, age 6-8 weeks
Settings: in vivo, po, route oral GAVAGE, vehicle 100 % WATER; for ABSOLUTE BASOPHIL / ABSOLUTE EOSINOPHIL / ABSOLUTE LYMPHOCYTE / ABSOLUTE MONOCYTE / ABSOLUTE SEGMENTED NEUTROPHIL / BASOPHIL / EOSINOPHIL / ERYTHROCYTE COUNT / HEMATOCRIT / HEMOGLOBIN / LEUKOCYTE COUNT / LYMPHOCYTE / MEAN CORPUSCULAR HEMOGLOBIN / MEAN CORPUSCULAR HEMOGLOBIN CONCENTRATION / MEAN CORPUSCULAR VOLUME / MONOCYTE / NEUTROPHIL / NUCLEATED RED BLOOD CELLS / PLATELET COUNT: tissue Blood; for ALANINE AMINOTRANSFERASE / ALBUMIN / ALKALINE PHOSPHATASE / ASPARTATE AMINOTRANSFERASE / BLOOD UREA NITROGEN / CARBON DIOXIDE / CHLORIDE / CHOLESTEROL / CREATINE PHOSPHOKINASE / CREATININE / GLUCOSE / LACTATE DEHYDROGENASE / LIPASE / PHOSPHORUS / POTASSIUM / SODIUM / TOTAL BILIRUBIN / TOTAL PROTEIN / URIC ACID: tissue Plasma
[1] = 0 mg/kg, 72 h, dose level Control, time 3 day
[2] = 0 mg/kg, 120 h, dose level Control, time 5 day
[3] = 60 mg/kg, 72 h, dose level Low, time 3 day

For `CC(C)C[C@H](NC(=O)[C@@H](O)[C@H](N)Cc1ccccc1)C(=O)O` [UBENIMEX], the “ABSOLUTE BASOPHIL” value [1] was 0 CELLS/uL, the “ABSOLUTE EOSINOPHIL” value [1] was 168.33 CELLS/uL and the “ABSOLUTE LYMPHOCYTE” value [1] was 13654.17 CELLS/uL. For the same molecule, the “ABSOLUTE MONOCYTE” value [1] was 121 CELLS/uL, the “ABSOLUTE SEGMENTED NEUTROPHIL” value [1] was 1223.17 CELLS/uL and the BASOPHIL [1] was 0%. For the same molecule, the EOSINOPHIL [1] was 1.17%, the “ERYTHROCYTE COUNT” value [1] was 5.7 x10E6/uL and the HEMATOCRIT [1] was 35.33%. For the same molecule, the HEMOGLOBIN [1] was 13.97 G/DL, the “LEUKOCYTE COUNT” value [1] was 15.17 x10E3/uL and the LYMPHOCYTE [1] was 89.83%. For the same molecule, the “MEAN CORPUSCULAR HEMOGLOBIN” value [1] was 24.53 pg, the “MEAN CORPUSCULAR HEMOGLOBIN CONCENTRATION” value [1] was 39.53 G/DL and the “MEAN CORPUSCULAR VOLUME” value [1] was 62.05 fL. The MONOCYTE [1] was 0.83%, the NEUTROPHIL [1] was 8.17% and the “NUCLEATED RED BLOOD CELLS” value [1] was 0 /100WBC. The “PLATELET COUNT” value [1] was 1312.17 x10E3/uL, the “ALANINE AMINOTRANSFERASE” value [1] was 50.83 u/L and the ALBUMIN [1] was 4.18 G/DL. The “ALKALINE PHOSPHATASE” value [1] was 334.17 u/L, the “ASPARTATE AMINOTRANSFERASE” value [1] was 82.17 u/L and the “BLOOD UREA NITROGEN” value [1] was 15.5 mg/dL. The “CARBON DIOXIDE” value [1] was 31.33 mmol/L, the CHLORIDE [1] was 99.83 MEQ/L and the CHOLESTEROL [1] was 76 mg/dL. The “CREATINE PHOSPHOKINASE” value [1] was 272.17 u/L, the CREATININE [1] was 0.17 mg/dL and the GLUCOSE [1] was 143 mg/dL. The “LACTATE DEHYDROGENASE” value [1] was 157.5 u/L, the LIPASE [1] was 9.33 u/L and the PHOSPHORUS [1] was 12.18 mg/dL. The POTASSIUM [1] was 6.78 MEQ/L, the SODIUM [1] was 143.9 MEQ/L and the “TOTAL BILIRUBIN” value [1] was 0.22 mg/dL. For the same molecule, the “TOTAL PROTEIN” value [1] was 5.85 G/DL, the “URIC ACID” value [1] was 1.7 mg/dL and the “ABSOLUTE BASOPHIL” value [2] was 0 CELLS/uL. The “ABSOLUTE EOSINOPHIL” value [2] was 0 CELLS/uL, the “ABSOLUTE LYMPHOCYTE” value [2] was 13539.33 CELLS/uL and the “ABSOLUTE MONOCYTE” value [2] was 177.67 CELLS/uL. The “ABSOLUTE SEGMENTED NEUTROPHIL” value [2] was 2116.33 CELLS/uL, the BASOPHIL [2] was 0% and the EOSINOPHIL [2] was 0%. The “ERYTHROCYTE COUNT” value [2] was 5.78 x10E6/uL, the HEMATOCRIT [2] was 36.13% and the HEMOGLOBIN [2] was 14.1 G/DL. The “LEUKOCYTE COUNT” value [2] was 15.83 x10E3/uL, the LYMPHOCYTE [2] was 85.83% and the “MEAN CORPUSCULAR HEMOGLOBIN” value [2] was 24.42 pg. The “MEAN CORPUSCULAR HEMOGLOBIN CONCENTRATION” value [2] was 39 G/DL, the “MEAN CORPUSCULAR VOLUME” value [2] was 62.55 fL and the MONOCYTE [2] was 0.83%. The NEUTROPHIL [2] was 13.33%, the “NUCLEATED RED BLOOD CELLS” value [2] was 0.17 /100WBC and the “PLATELET COUNT” value [2] was 1281.17 x10E3/uL. The “ALANINE AMINOTRANSFERASE” value [2] was 55.5 u/L, the ALBUMIN [2] was 4.22 G/DL and the “ALKALINE PHOSPHATASE” value [2] was 345 u/L. The “ASPARTATE AMINOTRANSFERASE” value [2] was 92.5 u/L, the “BLOOD UREA NITROGEN” value [2] was 16.5 mg/dL and the “CARBON DIOXIDE” value [2] was 26.5 mmol/L. The CHLORIDE [2] was 103.5 MEQ/L, the CHOLESTEROL [2] was 78.5 mg/dL and the “CREATINE PHOSPHOKINASE” value [2] was 381.5 u/L. The CREATININE [2] was 0.21 mg/dL, the GLUCOSE [2] was 161.83 mg/dL and the “LACTATE DEHYDROGENASE” value [2] was 487.5 u/L. The LIPASE [2] was 10.17 u/L, the PHOSPHORUS [2] was 11.83 mg/dL and the POTASSIUM [2] was 6.4 MEQ/L. The SODIUM [2] was 146.95 MEQ/L, the “TOTAL BILIRUBIN” value [2] was 0.22 mg/dL and the “TOTAL PROTEIN” value [2] was 6.22 G/DL. The “URIC ACID” value [2] was 1.83 mg/dL, the “ABSOLUTE BASOPHIL” value [3] was 0 CELLS/uL and the “ABSOLUTE EOSINOPHIL” value [3] was 99.33 CELLS/uL. For the same molecule, the “ABSOLUTE LYMPHOCYTE” value [3] was 13954.33 CELLS/uL, the “ABSOLUTE MONOCYTE” value [3] was 91 CELLS/uL and the “ABSOLUTE SEGMENTED NEUTROPHIL” value [3] was 1655.33 CELLS/uL. For the same molecule, the BASOPHIL [3] was 0%, the EOSINOPHIL [3] was 0.67% and the “ERYTHROCYTE COUNT” value [3] was 5.56 x10E6/uL. The HEMATOCRIT [3] was 33.13%, the HEMOGLOBIN [3] was 12.97 G/DL and the “LEUKOCYTE COUNT” value [3] was 15.8 x10E3/uL. The LYMPHOCYTE [3] was 88.33%, the “MEAN CORPUSCULAR HEMOGLOBIN” value [3] was 23.33 pg and the “MEAN CORPUSCULAR HEMOGLOBIN CONCENTRATION” value [3] was 39.17 G/DL. For the same molecule, the “MEAN CORPUSCULAR VOLUME” value [3] was 59.53 fL, the MONOCYTE [3] was 0.67% and the NEUTROPHIL [3] was 10.33%. For the same molecule, the “NUCLEATED RED BLOOD CELLS” value [3] was 0 /100WBC, the “PLATELET COUNT” value [3] was 1252.67 x10E3/uL and the “ALANINE AMINOTRANSFERASE” value [3] was 58 u/L. The ALBUMIN [3] was 4.13 G/DL, the “ALKALINE PHOSPHATASE” value [3] was 310.67 u/L and the “ASPARTATE AMINOTRANSFERASE” value [3] was 96.67 u/L. For the same molecule, the “BLOOD UREA NITROGEN” value [3] was 15.67 mg/dL, the “CARBON DIOXIDE” value [3] was 29.33 mmol/L and the CHLORIDE [3] was 100 MEQ/L. The CHOLESTEROL [3] was 80 mg/dL, the “CREATINE PHOSPHOKINASE” value [3] was 475.33 u/L and the CREATININE [3] was 0.2 mg/dL. For the same molecule, the GLUCOSE [3] was 142 mg/dL, the “LACTATE DEHYDROGENASE” value [3] was 612.67 u/L and the LIPASE [3] was 9.67 u/L. For the same molecule, the PHOSPHORUS [3] was 11.07 mg/dL, the POTASSIUM [3] was 6.61 MEQ/L and the SODIUM [3] was 143.5 MEQ/L. For the same molecule, the “TOTAL BILIRUBIN” value [3] was 0.17 mg/dL, the “TOTAL PROTEIN” value [3] was 5.8 G/DL and the “URIC ACID” value [3] was 1.47 mg/dL.
